These results are taken from US20080269161A1, “Compositions and Methods Relating to Mitochondrial Hyperpolarization in Neurological Disease” (priority 2005, published 2008).

For assay [1], the system named is HIV-1 isolates resistant to other protease inhibitors. Particulars: read-out: ED50 dose for inhibiting viral replication; cited from earlier work.
The test system of assay [2] is rat cerebellar granule neurons (CGNs). Briefly: Tat-induced apoptosis of cerebellar granule neurons (TUNEL). Format: cell-based. The conditions noted are these: Tat 500 nM, 48 h. On the procedure:
CGNs were exposed to HIV-1 Tat (Tat, 500 nM), or vehicle alone (NT), in the presence or absence of the A2A antagonist, ZM241385. After 48 h, cultures were analyzed for the percentage of apoptotic cells using the TUNEL assay. Data represent mean±SEM for one experiment that was performed in triplicate; data are representative of two independent experiments.
CGNs were exposed to HIV-1 Tat (Tat, 500 nM), or vehicle alone (No Tat), in the presence or absence of the A2AR antagonists, ATL455 and ZM241385, or the A2AR agonists ATL313 and CGS21680. After 48 h, cultures were analyzed for the percentage of apoptotic cells using the TUNEL assay. Data represent mean±SEM for one experiment that was performed in triplicate; data are representative of two independent experiments.
(1) Primary rat cerebellar granule neurons (CGNs). CGNs represent a highly homogenous population of primary neurons which are susceptible to Tat and PAF-mediated cell killing and have been used in many of previous studies. CGN cells are isolated according to published procedures [Maggirwar, S. B., et al. 1999. J Neurochem 73:578-86] [Tong, N., et al. 2001. Eur J Neurosci 13:1913-22].
78(4): p. […] 22(6): p. 1102-6].
Primary rat cerebellar granule neurons (CGNs) were exposed to a neurotoxic concentration of HIV-1 Tat, in the presence or absence of an A2AR antagonist (ZM241385). […] It is important to note that CGNs express adenosine A2A receptors [Vacas, J., et al. 2003. Brain Res 992:272-280].
Primary cultures of rat cerebellar granule neurons (CGNs) were exposed to HIV-Tat ([…]) alone or together with increasing doses of the A2AR antagonist ATL-455 or A2A agonists ATL313 or CGS21680. Cells are treated with the test compounds for defined time intervals of up to 48 hours (1, 4, 8, 24, and 48 hours).

The subject of assay [3] is Tat-stimulated TNF release in monocytes. Description: Tat-stimulated TNF release by primary monocytes (ELISA). The assay is classed as cell-based, human. Particulars: Tat 100 nM, 4 h; CGS21680 1 μM; ATL313, ATL455 1-4 nM; hydrochloride. How it is done: Human primary monocytes were treated with Tat (100 nM) in the presence or absence of the A2AR agonist, CGS21680 (CGS; 1 μM) or the A2AR antagonist, ZM241385 (100 nM) for 4 h. TNF levels in culture supernatants were then quantitated by ELISA. Data represent mean+SEM of three replicates, from a single representative experiment
(§1) Primary monocytes were seeded in separate triplicate wells, and exposed independently to LPS (100 ng/ml), vehicle (NT) or Tat (100 nM) in the presence or absence of the A2AR agonist, CGS21680 (1 μM). After 4 h, cells were harvested. (A) TNF was measured in cell supernatants by ELISA Mean data values (±S.D.) are shown for the triplicate wells. (B) The corresponding cells from each well in panel A were lysed and subjected to qRTPCR analysis. Each cDNA sample was analyzed in quadruplicate. Assay results are presented as fold induction of gene expression, compared to untreated cells, after normalization to levels of GAPDH. Data represent mean±SD for each individual experimental replicate/well.
Human primary monocytes were treated with Tat (100 nM) in the presence or absence of the A2AR agonist, ATL313 (1-4 nM) or the A2AR antagonist, ATL455 (1-4 nM) for 4 h. TNF levels in culture supernatants were then quantitated by ELISA. […]
Human primary monocytes were treated with Tat (100 nM) in the presence or absence of the A2AR agonist, ATL313 (at the indicated doses) for 4 h. TNF levels in culture supernatants were then quantitated by ELISA. […]
(6) Primary monocytes. […] Results are compared for both populations, as well as purity (as assessed by immunophenotyping using CD14, CD68 and MHC class II).
The effect of an A2AR agonist on TNF release by primary human monocytes was also determined. Monocytes were stimulated with HIV-1 Tat, in the presence or absence of the A2AR agonist CGS21680 or the A2AR antagonist ZM251385 and TNF release was then measured in cell culture supernatants using an ELISA assay.
Quantitative real-time PCR analysis was used to measure TNF message levels in Tat-treated monocytes. […]
A general note: In an ELISA, binding on a coated surface is turned into a signal by an enzyme label.

For assay [4], the system named is TNF and IL1 mRNA in primary human monocytes. Description: qRTPCR of inflammatory gene expression in Tat-exposed monocytes. Particulars: Tat 100 nM, CGS21680 1 μM, 4 h. The assay is classed as cell-based. On the procedure:
as §1
Quantitative real-time PCR analysis was used to measure TNF message levels in Tat-treated monocytes. Primary human monocytes were prepared using CD14^+ immunomagnetic selection, and then exposed to LPS or to HIV-1 Tat for 4 hours, in the presence or absence of the A2AR agonist CGS21680. Culture supernatants were tested for TNF levels by ELISA assay (FIG. 13A), and RNA was extracted from cell pellets for quantitative reverse-transcription PCR (qRTPCR) analysis (FIG. 13B).
In general terms: Quantitative PCR measures a nucleic acid by following its amplification.

Assay [5] deals with iNOS expression in human primary monocytes. Description: Tat-induced iNOS expression in primary monocytes. Format: cell-based. Particulars: co-treatment with Tat. On the procedure:
(§2) The effect of adenosine receptor activation on Tat-induced upregulation of iNOS expression and NO release was then determined. […] In contrast, incubation of cells with 1 μM R-PIA (an adenosine A1 receptor agonist) had no effect on Tat-induced iNOS expression or NO release (FIG. 11), implicating the A2A and A3 receptor subtypes in this anti-inflammatory effect. ZM241385 (an A2AR antagonist) or MRS 1220 (an A3R antagonist) could prevent the anti-inflammatory effects of CGS21680 or IB-MECA, respectively.

The test system of assay [6] is NO release by human primary monocytes. Briefly: Tat-induced nitric oxide release by primary monocytes (Griess reaction). Format: cell-based. The conditions noted are these: co-treatment with Tat, 8 h; R-PIA 1 μM. On the procedure:
Human primary monocytes were treated with Tat in the presence or absence of the indicated adenosine receptor agonists for 8 h, and nitric oxide levels in the culture medium of the cells were then quantitated using the Griess reaction (Active Motif). Data represent mean+SEM of three experiments.
as §2

Assay [7] concerns rat cortical neurons. Format: cell-based.
Experimental: Measuring production of intracellular ROS: Generation of ROS in response to Tat and PAF is assessed with the oxidizable dye indicator 5-(and-6)-chloromethyl-2′, 7′-dichlorodihydrofluorescein diacetate, acetyl ester (CM—H2DCFDA, abbreviated as “DCF”) (Molecular Probes, Eugene, Oreg.). Upon entering the cell by passive diffusion, the acetate groups are cleaved by intracellular esterases, and the thiol-reactive chloromethyl group binds to intracellular thiols, rendering the CM—H2DCF product trapped within the cell. […] [manufacturer's data] leaves the final fluorescent product CM-DCF, which is then imaged (excitation: 485, emission: 538) and quantitated in the same fashion as TMRM (above) as an indicator of relative levels of ROS in the culture.
Assay [8] concerns rodent cortical cultures. Description: FM1-43 vesicular uptake in cortical neuronal cultures. Format: cell-based, rat. Particulars: all doses of Tat. On the procedure: (C) Moreover, activity dependent FM1-43 release by KC1 depolarization preferentially reduces the punctate vesicular labeling versus background signal. (D) In ≦14 and ≧14 day old primary neurons, 2.5 μg/ml Tat and 4.25 μg/ml Tat induces an increase in spontaneous activity dependent vesicular uptake, an effect that is both dose and culture age dependent.
Cortical neuronal cultures were treated with Tat or cPAF for varying periods of time as an in vitro model of pre-synaptic nerve terminal function, using the lipophilic, fluorescent styryl dye N-(3-triethylammoniumpropyl)-4-(4-(dibutylamino)styryl) pyridinium dibromide (FM1-43), which binds to synaptic vesicle membranes and is taken up into nerve terminals during normal activity (i.e., synaptic vesicle recycling). Fluorescent signal can be quantified to number of neurons, and after chemical depolarization with high concentrations of KC1, fluorescent signal is abolished, giving an index of nerve terminal activity in real-time. […] 68(7): p. 4628-35]. […]
FM1-43 uptake assay: Total spontaneous activity dependent vesicular uptake was assessed using the lipophilic styryl dye N-(3-triethylammoniumpropyl)-4-(4-(dibutylamino)styryl) pyridinium dibromide (FM1-43). […] Upon subsequent exocytosis, the vesicle fuses with the membrane, releasing its contents, and the FM1-43 dissociates back into the extracellular solution and loses its fluorescence. […]

“Also recorded” adds a separate entry of the source. Where a name gives a salt, the structure may show the parent alone.

On to `COC(=O)N[C@H](C(=O)N[C@@H](Cc1ccccc1)[C@@H](O)CN(Cc1ccc(-c2ccccn2)cc1)NC(=O)[C@@H](NC(=O)OC)C(C)(C)C)C(C)(C)C` [Atazanvir, Atazanavir], for which the EC50 in assay [1] was 2 to 8 nM.
For the compound `CCNC(=O)[C@H]1O[C@@H](n2cnc3c(N)nc(NCCc4ccc(CCC(=O)O)cc4)nc32)[C@H](O)[C@@H]1O` [CGS21680, 4-[2-[[6-Amino-9-(N-ethyl-b-D-ribofuranuronamidosyl)-9H-purin-2yl]amino]ethyl]benzenepropanoic acid hydrochloride], the “effect on Tat-induced neuronal apoptosis” value in assay [2] was “did not result in an increase in cell death”. The “effect on Tat-induced monocyte activation (TNF release)” value in assay [3] is listed as “abrogated; also recorded: strongly suppressed; also recorded: opposed”. In assay [4], the “effect on IL1 mRNA levels” value is listed as “little effect” and the “effect on TNF transcription” value is reported as “strongly suppressed”. Also, the “inhibition of Tat-induced iNOS expression” value in assay [5] is “roughly 50%”. The “effect on Tat-induced NO secretion” value in assay [6] is given as “complete abrogation”.
Consider `OO` [H202, hydrogen peroxide], for which the “increase in ROS production” value in assay [7] came to 90%.
`C[C@H](CCC(=O)NCCS(=O)(=O)O)[C@H]1CC[C@H]2[C@@H]3[C@@H](O)C[C@@H]4C[C@H](O)CC[C@]4(C)[C@H]3CC[C@]12C` [TUDCA, tauroursodeoxycholic acid]: in assay [8], the “effect on Tat-induced increase in FM1-43 uptake” value is recorded as “completely blocked; also recorded: completely eliminated”.
